Data set [1] deals with COX-1 (Homo sapiens, UniProt P23219). Put plainly: Cyclooxygenase-1. The class given is biochemical. The note with it: IC50 COX-1, ±SEM, triplicate.
The target in data set [2] is T1, COX-2 (Homo sapiens, UniProt P35354).
T1 sequence (P35354 18-604): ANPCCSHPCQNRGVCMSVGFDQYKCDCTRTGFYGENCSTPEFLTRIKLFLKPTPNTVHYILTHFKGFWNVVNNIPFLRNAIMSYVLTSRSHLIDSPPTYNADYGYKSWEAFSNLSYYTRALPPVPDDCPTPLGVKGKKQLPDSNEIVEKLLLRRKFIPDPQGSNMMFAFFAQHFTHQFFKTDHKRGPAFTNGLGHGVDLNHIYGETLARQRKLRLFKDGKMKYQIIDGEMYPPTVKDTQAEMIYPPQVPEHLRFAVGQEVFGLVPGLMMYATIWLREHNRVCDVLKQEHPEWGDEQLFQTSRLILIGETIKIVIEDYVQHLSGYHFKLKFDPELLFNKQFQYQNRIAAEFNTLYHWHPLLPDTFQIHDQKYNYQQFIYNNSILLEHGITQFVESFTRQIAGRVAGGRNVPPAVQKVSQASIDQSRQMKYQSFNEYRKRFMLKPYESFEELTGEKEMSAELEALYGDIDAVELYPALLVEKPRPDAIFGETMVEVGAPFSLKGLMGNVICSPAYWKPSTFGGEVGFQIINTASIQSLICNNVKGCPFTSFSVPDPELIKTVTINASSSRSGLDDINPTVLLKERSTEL
Put plainly: Cyclooxygenase-2. The class given is biochemical. The note with it: for IC50: IC50 COX-2, ±SEM, triplicate.

Data set [3] deals with Balb C mice. Kind of data set: Acute toxicity study. The class given is in vivo. The note with it: I/P, highest tested dose 150 mg/kg, 24 hours.
In data set [4] the test system is Balb C mice. Put plainly: Acetic acid induced writhing test. The class given is in vivo. The note with it: 50 mg/kg.
The test system of data set [5] is Balb C mice. Kind of data set: Tail immersion. In kind it is in vivo.
In data set [6] the test system is Alpha-2 Adrenergic Receptor. Put plainly: Involvement of adrenergic receptors. The class given is in vivo, mice.
Data set [7] has as its system Dopaminergic Receptor. Put plainly: Involvement of dopaminergic receptors. In kind it is in vivo, mice.
Data set [8] relates to Balb C mice. Put plainly: Formalin-induced paw-licking test.
Where [9] appears, read: 25 mg/kg after yohimbine (YH, 1 mg/kg).
[10] abbreviates: 50 mg/kg after yohimbine (YH, 1 mg/kg).
Setting [11] is: 25 mg/kg after haloperidol (HL, 1 mg/kg).
Setting [12] is: 50 mg/kg after haloperidol (HL, 1 mg/kg).
[13] abbreviates: 25 mg/kg, with naloxone (N, 2 mg/kg s.c.).
Where [14] appears, read: 50 mg/kg, with naloxone (N, 2 mg/kg s.c.).
[15] abbreviates: haloperidol alone, 1 mg/kg i.p.
Where [16] appears, read: 10 mg/kg, with naloxone (N, 2 mg/kg s.c.).
Setting [17] is: 5 mg/kg, with naloxone (N, 2 mg/kg s.c.).

Molecules are shown by their SMILES. Several values for one entry are separate records, joined by “and”; a condition that tells them apart may be missing. Equal values may be shown once.

COX-1, sequence (P23219 24-599): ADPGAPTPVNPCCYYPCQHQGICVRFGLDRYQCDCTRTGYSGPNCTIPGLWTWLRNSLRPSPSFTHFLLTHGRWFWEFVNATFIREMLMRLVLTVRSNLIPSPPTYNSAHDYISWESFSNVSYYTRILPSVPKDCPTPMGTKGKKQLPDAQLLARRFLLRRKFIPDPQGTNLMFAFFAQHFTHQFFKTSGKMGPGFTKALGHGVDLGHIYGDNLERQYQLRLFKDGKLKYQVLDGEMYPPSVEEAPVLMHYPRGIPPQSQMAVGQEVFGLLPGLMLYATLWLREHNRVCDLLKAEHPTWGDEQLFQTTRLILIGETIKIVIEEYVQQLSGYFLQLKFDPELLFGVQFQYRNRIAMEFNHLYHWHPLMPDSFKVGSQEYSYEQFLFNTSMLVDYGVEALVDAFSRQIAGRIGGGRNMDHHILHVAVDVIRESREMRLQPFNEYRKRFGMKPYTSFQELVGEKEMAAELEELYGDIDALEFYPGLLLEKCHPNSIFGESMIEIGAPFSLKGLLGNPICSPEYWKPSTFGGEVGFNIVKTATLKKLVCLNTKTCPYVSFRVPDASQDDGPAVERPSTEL

Broadly, the IC50 is the point on the concentration scale where inhibition reaches its midpoint. Low readings indicate inhibition by little substance, high ones a need for much substance. With `CCC[C@](C)(C=O)[C@@H]1CC(=O)N(c2ccccc2)C1=O` [Compound 4, (S)-2-((S)-2,5-dioxo-1-phenylpyrrolidin-3-yl)-2-methylpentanal], the half-maximal inhibitory concentration (IC50) in data set [1] was 128 µM; in data set [2], 65 µM and 65.9 µM. The “Selectivity Index (SI) (IC50 COX-1/IC50 COX-2)” value in data set [2] is reported as 1.94. In addition, the “Acute toxicity (adverse effect, change in body weight, mortality)” value in data set [3] is “safe”. The Inhibition of writhing in data set [4] (n=6) stood at 52.2%. The “Tail flick Response (%)” value in data set [5] (25 mg/kg i.p., 15 Minutes) stood at 11.1%; in data set [5] (25 mg/kg i.p., 30 Minutes), 14.8%; in data set [5] (25 mg/kg i.p., 45 Minutes), 16.3%; in data set [5] (25 mg/kg i.p., 60 Minutes) it was 18.9%; in data set [5] (25 mg/kg i.p., 75 Minutes), 29.5%; in data set [5] (25 mg/kg i.p., 75 Minutes, listed as Comp 4), 29.5%. The “Tail flick Response (%)” value in data set [5] (25 mg/kg i.p., 90 Minutes) was found to be 19.8%; in data set [5] (50 mg/kg i.p., 15 Minutes), 14.8%; in data set [5] (50 mg/kg i.p., 30 Minutes), 22.7%; in data set [5] (50 mg/kg i.p., 45 Minutes) it was 33.7%; in data set [5] (50 mg/kg i.p., 60 Minutes) it was 42.1%; in data set [5] (50 mg/kg i.p., 75 Minutes), 53.4%. For the same compound, the “Tail flick Response (%)” value in data set [5] (50 mg/kg i.p., 75 Minutes, listed as Comp 4) was found to be 53.4%; in data set [5] (50 mg/kg i.p., 90 Minutes), 46.2%; in data set [5] (50 mg/kg i.p., 90 Minutes, listed as Comp 4), 46.2%. Moreover, the “% Activity” value in data set [6] (setting [9]) is listed as 15.58±1.44%; in data set [6] (setting [10]) it was 16.08±1.08%; in data set [7] (setting [11]), 16.52±1.25%; in data set [7] (setting [12]), 16.70±1.16%. Further, the Writhing in data set [6] (setting [9]) was found to be 57.09±2.20; in data set [6] (setting [10]), 56.73±1.05; in data set [7] (setting [11]), 56.42±1.05; in data set [7] (setting [12]), 56.23±1.05. Moreover, the “Inhibition (%) 1st Phase” value in data set [8] (25 mg/kg) was determined as 22.30±0.85%; in data set [8] (setting [13]) it was 17.47±1.89%; in data set [8] (50 mg/kg), 36.16±4.47%; in data set [8] (setting [14]), 23.69±1.44%. Moreover, the “Inhibition (%) 2nd Phase” value in data set [8] (25 mg/kg) was determined as 38.94±2.88%; in data set [8] (setting [13]) it was 33.76±2.53%; in data set [8] (50 mg/kg), 50.66±3.84%; in data set [8] (setting [14]), 42.15±1.43%. Further, the “Licking Time 1st Phase” value in data set [8] (25 mg/kg) came out at 39.35 ± 1.231 s; in data set [8] (setting [13]), 41.80 ± 1.33 s; in data set [8] (50 mg/kg) it was 32.33 ± 1.356 s; in data set [8] (setting [14]) it was 38.65 ± 1.25 s. Further, the “Licking Time 2nd Phase” value in data set [8] (25 mg/kg) was found to be 45.12 ± 1.145 s; in data set [8] (setting [13]), 48.95 ± 1.40 s; in data set [8] (50 mg/kg) it was 36.45 ± 1.232 s; in data set [8] (setting [14]) it was 42.75 ± 1.65 s.

With `CC(=O)CC(C[N+](=O)[O-])c1ccccc1` (stereo not shown) [Compound 9, 5-nitro-4-phenylpentan-2-one], half-maximal inhibition in data set [1] (IC50) required 67.6 ± 1.02 µM. In data set [2], the “Selectivity Index (SI) (IC50 COX-1/IC50 COX-2)” value is recorded as 0.91 and the IC50 amounted to 73.5 ± 1.38 µM.

On to `O=C(CCCN1CCC(O)(c2ccc(Cl)cc2)CC1)c1ccc(F)cc1` [Haloperidol, haloperidol, reference compound], for which, in data set [7] (setting [15]), the “% Activity” value turned out to be 17.50±1.28% and the Writhing is reported as 55.78±2.02.

In the case of `COc1ccc2c(c1)c(CC(=O)O)c(C)n2C(=O)c1ccc(Cl)cc1` [Indomethacin, indomethacin, reference compound], in data set [8] (10 mg/kg), the “Inhibition (%) 1st Phase” value was 23.69±3.24%, the “Inhibition (%) 2nd Phase” value was 74.34±2.86%, the “Licking Time 1st Phase” value came out at 38.65 ± 1.37 s and the “Licking Time 2nd Phase” value stood at 18.96 ± 1.342 s. For the same compound, in data set [8] (setting [16]), the “Inhibition (%) 1st Phase” value came to 11.64±1.20%, the “Licking Time 1st Phase” value came to 44.75 ± 1.76 s and the “Licking Time 2nd Phase” value was found to be 25.00 ± 1.249 s.

As to `CN1CC[C@]23c4c5ccc(O)c4O[C@H]2[C@@H](O)C=C[C@H]3[C@H]1C5` [Morphine, morphine, reference compound], the “Tail flick Response (%)” value in data set [5] (5 mg/kg, 15 Minutes) was determined as 48.1%; in data set [5] (5 mg/kg, 30 Minutes), 56.1%; in data set [5] (5 mg/kg, 45 Minutes), 75%; in data set [5] (5 mg/kg, 60 Minutes), 85%; in data set [5] (5 mg/kg, 75 Minutes), 80.2%; in data set [5] (5 mg/kg, 75 Minutes, listed as morphine), 80.2%. For the same compound, the “Tail flick Response (%)” value in data set [5] (5 mg/kg, 90 Minutes) stood at 78.4%; in data set [5] (5 mg/kg, 90 Minutes, listed as morphine), 78.4%. Besides, the results for the “Inhibition (%) 1st Phase” value in data set [8] (5 mg/kg) and in data set [8] (setting [17]) were 87.16±3.32% and 2.68±1.20%, respectively. For the same compound, the “Inhibition (%) 2nd Phase” value in data set [8] (5 mg/kg) stood at 96.34±0.66%; in data set [8] (setting [17]), 1.44±0.28%. The “Licking Time 1st Phase” value in data set [8] (5 mg/kg) stood at 6.50 ± 1.153 s; in data set [8] (setting [17]) it was 49.29 ± 1.52 s. For the same compound, the “Licking Time 2nd Phase” value in data set [8] (5 mg/kg) was 2.70 ± 1.340 s; in data set [8] (setting [17]) it was 72.83 ± 1.152 s.

With `COC(=O)[C@@H]1[C@H]2C[C@H]3c4[nH]c5ccccc5c4CCN3C[C@@H]2CC[C@@H]1O` [Yohimbine, yohimbine, reference compound], in data set [6] (yohimbine alone, 1 mg/kg i.p.), the “% Activity” value is on record as 15.08±1.15% and the Writhing stood at 57.4±2.02.

Regarding `O=C(O)Cc1ccccc1Nc1c(Cl)cccc1Cl` [diclofenac sodium], the Inhibition of writhing in data set [4] (n=6) came to 85%; in data set [4] (n=6, listed as diclofenac), 84.96%.

Source of the values: PMC8001115 (Drug Design, Development and Therapy, 2021).
